“Also recorded” adds a separate entry of the source.
System: rat corpus cavernosum strips
Assay: Isometric tension of isolated rat corpus cavernosum strips
Experimental: For functional studies in corpus cavernosum strips, the penis was removed by cutting the crura corpora cavernosa at the point of adhesion to the lower pubic bone, and the corpora cavernosa were then dissected free. The penis was submerged immediately in ice-cold (4° C.) PSS. The tunica albuginea was carefully opened from its proximal extremity of the corpus cavernosum towards the penile shaft and the erectile tissue within the corpus cavernosum was microsurgically dissected free. Change in isometric tension of corpus cavernosum strips (0.5×0.5×3 mm) were investigated in a tissue organ bath system (750TOBS, Danish Myotechnology, Aarhus, Denmark). Silk ligatures were applied at both ends of the strip preparations, which were then suspended between two L-formed metal prongs in thermostatically controlled organ baths (5 ml, 37° C.) containing PSS aerated with a mixture of 5% CO2 in air (pH 7.4). The bath fluid was routinely changed every 20 min and replaced with fresh PSS, also kept at 37° C. During an equilibration period of 60 min, tension was adjusted until a mean stable tension of 1.2 mN was obtained, as described earlier.
To test the contractility of the preparations, they were exposed to a potassium physiological saline solution (KPSS) of 125 mM and phenylephrine (10^-6 M), after each contraction acetylcholine was administrated to check endothelium-dependent relaxations.
To investigate the effect of IP2015 on corpus cavernosum strips, the drug (10 9-3×10^-4 M) was administered either in preparations at baseline tension or contracted with phenylephrine (10^-6 M) in the absence or presence of L-NOARG (10 4 M), a NO synthase inhibitor, sildenafil (10^-7 M), a PDE5 inhibitor, a dopamine D1 receptor antagonist, SCH23390, and a dopamine D2 receptor antagonist, clozapine (10^-6 M). The effect of vehicle was also investigated.

COc1cc2ccc(OC3CC4CCC(C3)N4)cc2oc1=O (centres unmarked) [IP2015, 7-[(8-azabicyclo[3.2.1]octan-3-yl)oxy]-3-methoxy-chromen-2-one]
relaxation of corpus cavernosum strips (added at basal tension, increasing concentrations): concentration-dependently induced relaxation; also recorded: induced concentration-dependent relaxations; also recorded: induces relaxations
IP2015 relaxation in preparations with and without endothelium (corpus cavernosum strips, n=5): observed in preparations with endothelium but not in preparations without endothelium
